# Laboratory results taken from ChEMBL document CHEMBL1201862, “PubChem BioAssay data set” (2004).
# Active and inactive are the calls of the source.
# How the values were obtained:
# [1] = target: T1, Ubiquitin-conjugating enzyme E2 N (Homo sapiens, UniProt P61088); type: functional;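 also: Dose-response confirmation in a TR-FRET assay detecting UBC13-driven polyubiquitin chain formation, inhibition measured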
# T1 sequence (P61088 whole entry): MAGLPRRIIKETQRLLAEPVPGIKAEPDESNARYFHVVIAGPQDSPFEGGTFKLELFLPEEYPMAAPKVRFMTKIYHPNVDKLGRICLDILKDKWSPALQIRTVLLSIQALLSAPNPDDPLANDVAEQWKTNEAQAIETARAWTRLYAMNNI
# [2] = Luminescence Cell-Based Dose Retest to Confirm Inhibitors of Cancer Stem Cells. [Related pubchem assays (depositor defined):AID2717, AID2721]; type: functional; conditions: Homo sapiens
# [3] = target: T2, Calpain-2 catalytic subunit (Sus scrofa, UniProt P43367); assay: pig calpain II inhibitor potency, dose response, biochemical, fluorogenic peptide substrate (AID 1420); type: functional
# T2 sequence (P43367 whole entry): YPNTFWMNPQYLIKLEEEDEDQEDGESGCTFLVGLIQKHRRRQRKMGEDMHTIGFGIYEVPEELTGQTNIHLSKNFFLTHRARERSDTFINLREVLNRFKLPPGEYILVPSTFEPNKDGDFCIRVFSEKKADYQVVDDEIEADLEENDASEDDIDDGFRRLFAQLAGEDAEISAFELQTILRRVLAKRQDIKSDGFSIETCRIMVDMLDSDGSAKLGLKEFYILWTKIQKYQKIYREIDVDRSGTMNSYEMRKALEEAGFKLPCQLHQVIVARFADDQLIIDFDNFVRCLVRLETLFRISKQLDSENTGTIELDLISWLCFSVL
# [4] = inhibitors of SNCA 5'UTR-driven reporter translation, confirmation, H4 neuroglioma cells, luminescence (AID 1988); type: functional, cell-based
# [5] = Luminescence Cell-Based Dose Response HTS to Identify Inhibitors of 5'UTR Stem-Loop Driven Prion Protein mRNA Translation in H4 Neuroglioblastoma Cells. [Related pubchem assays: 1827 (Project Summary), 1813 (Primary HTS)]; type: functional
# [6] = inhibitors of firefly luciferase expression or activity, dose response, H4 neuroglioma cells, luminescence (AID 1990); type: functional, cell-based
# [7] = target: FAD-linked sulfhydryl oxidase ALR (Homo sapiens, UniProt P55789); assay: inhibitors of human ALR sulfhydryl oxidase, dose response, biochemical, H2O2 detection, luminescence, cherry-pick (AID 493248)
# FAD-linked sulfhydryl oxidase ALR, sequence (P55789 whole entry, the tested form may be a part): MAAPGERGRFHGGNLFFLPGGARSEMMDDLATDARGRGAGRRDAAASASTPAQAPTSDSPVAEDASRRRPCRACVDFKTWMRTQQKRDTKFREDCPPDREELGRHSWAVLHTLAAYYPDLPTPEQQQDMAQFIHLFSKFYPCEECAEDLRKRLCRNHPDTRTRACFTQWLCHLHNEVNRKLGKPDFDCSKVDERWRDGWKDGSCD
# [8] = inhibitors of clade B AD8 Env fusion, dose response, cell-based, cherry-pick (AID 652062); type: functional;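 also: luciferase signal from cell-cell fusion driven by HIV-1 clade B AD8 Env; potency is for inhibitors of fusion seen as a drop in luminescence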
# [9] = inhibitors of HIV Env-driven cell fusion, dose response, cherry-pick (AID 652057); type: functional, cell-based
# [10] = target: T3, RNA-binding protein pos-1 (Caenorhabditis elegans, UniProt G5EF15); assay: inhibitors of POS-1/mex-3 RNA binding, dose response, biochemical, fluorescence polarization (AID 1964);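 also: purified POS-1 fused to maltose binding protein made in E. coli; potency of compounds blocking POS-1 binding to fluorescent RNA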
# T3 sequence (G5EF15 whole entry): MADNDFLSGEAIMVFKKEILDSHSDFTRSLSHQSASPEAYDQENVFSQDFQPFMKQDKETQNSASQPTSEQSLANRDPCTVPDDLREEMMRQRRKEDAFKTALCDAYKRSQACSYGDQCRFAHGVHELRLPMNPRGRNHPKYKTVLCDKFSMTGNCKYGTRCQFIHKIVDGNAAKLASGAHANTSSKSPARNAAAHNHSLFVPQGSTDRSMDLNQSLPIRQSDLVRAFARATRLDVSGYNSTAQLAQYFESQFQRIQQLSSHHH
# [11] = target: T4, High affinity choline transporter 1 (Homo sapiens, UniProt Q9GZV3); assay: CHT inhibitors, dose response, cell-based, 5-point CRC, membrane potential dye (AID 504840); type: functional
# T4 sequence (Q9GZV3 whole entry): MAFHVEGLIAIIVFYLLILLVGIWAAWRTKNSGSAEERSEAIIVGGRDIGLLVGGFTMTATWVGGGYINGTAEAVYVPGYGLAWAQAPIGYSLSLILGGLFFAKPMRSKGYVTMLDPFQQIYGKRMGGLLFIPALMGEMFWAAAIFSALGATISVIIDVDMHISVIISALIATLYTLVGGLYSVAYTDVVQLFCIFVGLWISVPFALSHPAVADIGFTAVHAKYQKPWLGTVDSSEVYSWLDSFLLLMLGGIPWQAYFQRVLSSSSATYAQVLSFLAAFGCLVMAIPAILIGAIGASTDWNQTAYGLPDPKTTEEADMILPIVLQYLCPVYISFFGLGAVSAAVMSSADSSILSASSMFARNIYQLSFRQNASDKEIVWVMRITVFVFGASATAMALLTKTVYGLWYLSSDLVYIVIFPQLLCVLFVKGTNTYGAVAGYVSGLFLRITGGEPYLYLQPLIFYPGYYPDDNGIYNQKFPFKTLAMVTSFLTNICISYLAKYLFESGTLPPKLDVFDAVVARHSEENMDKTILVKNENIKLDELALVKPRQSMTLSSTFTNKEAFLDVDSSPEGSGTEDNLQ
# [12] = target: T5, Carboxy-terminal domain RNA polymerase II polypeptide A small phosphatase 1 (Homo sapiens, UniProt Q9GZU7); assay: inhibitors of CTDSP1, concentration-response testing, biochemical assay, absorbance-based, actives from ultra-high-throughput screening (AID 540297); type: functional
# T5 sequence (Q9GZU7 whole entry): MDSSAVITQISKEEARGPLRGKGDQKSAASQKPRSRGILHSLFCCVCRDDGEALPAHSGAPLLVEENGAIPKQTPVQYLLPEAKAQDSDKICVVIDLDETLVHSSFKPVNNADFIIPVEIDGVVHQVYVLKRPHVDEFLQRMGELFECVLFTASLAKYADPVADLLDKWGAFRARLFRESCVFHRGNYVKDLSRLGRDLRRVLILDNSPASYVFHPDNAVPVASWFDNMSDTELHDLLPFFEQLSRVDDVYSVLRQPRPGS
# Cytochrome P450 2D6 = Cytochrome P450 2D6 (Homo sapiens, UniProt P10635);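 also: CYP2D6 member of a cytochrome P450 panel assay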
# Cytochrome P450 2D6, sequence (P10635 whole entry): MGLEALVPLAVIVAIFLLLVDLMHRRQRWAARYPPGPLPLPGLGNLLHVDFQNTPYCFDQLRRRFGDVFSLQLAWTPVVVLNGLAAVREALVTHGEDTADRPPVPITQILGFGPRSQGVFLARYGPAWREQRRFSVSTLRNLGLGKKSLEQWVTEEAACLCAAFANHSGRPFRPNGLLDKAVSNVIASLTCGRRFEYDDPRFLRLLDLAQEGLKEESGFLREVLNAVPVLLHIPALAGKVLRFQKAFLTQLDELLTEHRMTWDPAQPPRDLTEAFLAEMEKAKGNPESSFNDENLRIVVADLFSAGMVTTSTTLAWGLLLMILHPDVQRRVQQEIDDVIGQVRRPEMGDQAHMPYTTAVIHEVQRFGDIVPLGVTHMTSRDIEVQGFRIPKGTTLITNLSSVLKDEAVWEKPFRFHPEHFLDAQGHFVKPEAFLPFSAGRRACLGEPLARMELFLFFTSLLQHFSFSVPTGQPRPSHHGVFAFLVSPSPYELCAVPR
# [13] = target: T6, Heat shock factor protein 1 (Mus musculus, UniProt P38532); assay: HSF1 potentiators in luciferase reporter cells, confirmation, cell-based, NIH3T3, luminescence, dose retest (AID 435004); type: functional;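 also: stress induced by proteasome inhibitor MG132 added 30 min after compound; luciferase reporter driven by HSF1 response element in NIH3T3 cells; actives raise luminescence as potentiators of the MG132 stress response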
# T6 sequence (P38532 whole entry): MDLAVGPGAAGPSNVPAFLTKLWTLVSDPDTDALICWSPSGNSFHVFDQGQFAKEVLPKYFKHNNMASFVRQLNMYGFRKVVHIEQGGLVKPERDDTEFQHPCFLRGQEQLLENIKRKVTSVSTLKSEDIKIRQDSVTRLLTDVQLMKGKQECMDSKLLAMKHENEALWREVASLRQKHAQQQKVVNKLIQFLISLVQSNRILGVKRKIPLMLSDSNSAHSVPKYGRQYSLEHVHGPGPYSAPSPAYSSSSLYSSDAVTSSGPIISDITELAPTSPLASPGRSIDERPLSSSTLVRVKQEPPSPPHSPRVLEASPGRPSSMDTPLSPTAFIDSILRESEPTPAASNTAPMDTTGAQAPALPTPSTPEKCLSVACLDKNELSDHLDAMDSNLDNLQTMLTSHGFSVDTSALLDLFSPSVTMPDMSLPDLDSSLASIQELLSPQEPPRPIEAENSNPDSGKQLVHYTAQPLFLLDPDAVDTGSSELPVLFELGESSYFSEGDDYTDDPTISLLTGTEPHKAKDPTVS
# Nonstructural protein 1 = Nonstructural protein 1 (Influenza A virus, UniProt Q194T2); type: functional, Influenza A virus (A/California/07/2009(H1N1))
# Nonstructural protein 1, sequence (Q194T2 whole entry): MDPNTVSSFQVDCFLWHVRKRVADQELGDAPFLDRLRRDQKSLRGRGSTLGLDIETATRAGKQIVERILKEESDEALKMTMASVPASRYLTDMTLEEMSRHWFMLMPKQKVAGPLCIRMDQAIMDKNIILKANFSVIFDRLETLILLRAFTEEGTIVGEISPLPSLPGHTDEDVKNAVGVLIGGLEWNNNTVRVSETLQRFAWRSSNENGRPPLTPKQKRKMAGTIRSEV
# [14] = microbe, parasite or virus in culture; type: functional; conditions: Mycobacterium tuberculosis
# [15] = target: T7, Rac GTPase-activating protein 1 (Homo sapiens, UniProt Q9H0H5); assay: MgcRacGAP GTPase-activating activity inhibitors, confirmation, biochemical, ADP Hunter fluorescence, primary and confirmatory (AID 624330); type: functional
# T7 sequence (Q9H0H5 whole entry): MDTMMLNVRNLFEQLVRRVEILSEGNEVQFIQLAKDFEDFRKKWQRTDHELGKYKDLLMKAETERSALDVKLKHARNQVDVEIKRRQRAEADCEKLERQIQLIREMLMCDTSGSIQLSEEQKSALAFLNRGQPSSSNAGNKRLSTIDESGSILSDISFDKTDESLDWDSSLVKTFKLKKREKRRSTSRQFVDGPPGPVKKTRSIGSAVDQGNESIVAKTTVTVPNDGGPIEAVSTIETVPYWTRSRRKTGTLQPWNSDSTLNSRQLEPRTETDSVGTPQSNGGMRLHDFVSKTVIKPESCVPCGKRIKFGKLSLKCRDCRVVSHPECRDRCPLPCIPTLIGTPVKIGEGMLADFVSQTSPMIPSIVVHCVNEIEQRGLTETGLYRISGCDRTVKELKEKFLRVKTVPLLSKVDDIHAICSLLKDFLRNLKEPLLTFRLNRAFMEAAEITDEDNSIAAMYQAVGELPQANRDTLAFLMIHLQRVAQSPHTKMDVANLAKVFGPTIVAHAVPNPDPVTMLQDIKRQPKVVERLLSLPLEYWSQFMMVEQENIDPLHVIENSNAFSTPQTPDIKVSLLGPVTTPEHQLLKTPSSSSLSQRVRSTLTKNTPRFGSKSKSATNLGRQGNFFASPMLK
# [16] = cytotoxicity in HEK-293T cells, dose response, cytotoxicity control for TCR NF-kB inhibitor project, luminescence, T-cell screen hits (AID 489026); type: functional, cell-based;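 also: cells exposed to compound about 14 hours before the viability readout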
# [17] = P. falciparum ATP4 D1247Y mutant growth inhibitors, dose response, NITD609-resistant line, SYBR Green, dry powder (AID 1159571); type: functional, cell-based;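 also: parasites synchronized at ring stage by sorbitol before testing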
# [18] = P. falciparum 3D7-ScDHODH growth inhibitors, dose response, SYBR Green, dry powder samples (AID 1159570); type: functional, cell-based;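 also: parasite growth measured after 72 hours of compound exposure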
# [19] = P. falciparum Dd2 growth inhibitors, dose response, SYBR Green, dry powder samples (AID 1159566); type: functional, cell-based;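 also: potency for growth inhibition with lower SYBR green DNA signal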
# [20] = P. falciparum Dd2 growth inhibitors, dose response, SYBR Green, cherry-picked samples (AID 1159567); type: functional, cell-based
smiles,measurement,setting,value
COc1ccc(-c2sc3cc4c(cc3c2C#CC2(N)CCCCC2)OCO4)cc1,IC50,[1],> 20 µM (inactive)
same,AC50,[2],1.48 µM (active)
O=c1c2ccccc2nc(SCc2cn3ccsc3n2)n1-c1ccccc1F,IC50,[3],< 0.4 µM (not active)
Cc1cccc(NC(S)=NCCSc2ccc(Cl)cc2)c1,EC50,[4],84.8 µM (active)
same,IC50,[3],3.87 µM (not active)
same,EC50,[5],62.6 µM (active)
same,EC50,[6],> 120 µM (not active)
Cc1ccn2cc(-c3cccc(NC(=O)CCC(=O)O)c3)nc2c1,AC50,[7],0.618 µM (active)
COc1cc(O)c(C(CCN2CCCCC2)c2ccc(N(C)C)cc2)c(OC)c1 (configuration not stated),AC50,[7],1.83 µM (active)
O=C(c1ccc2c(c1)OCO2)N1CCN=C1SCc1cccnc1,AC50,[7],0.076 µM (active)
CC(=O)c1c(C)[nH]c(C(=O)OCC(=O)Nc2ccc(Cl)c(S(=O)(=O)N(C)C)c2)c1C,AC50,[8],40.4 µM (active)
same,AC50,[9],2.76 µM (active)
CC(=O)Nc1ccc(S(=O)(=O)NNC(=O)C(=O)NNc2ccccn2)cc1,IC50,[1],> 20 µM (inactive)
same,EC50,[10],> 300 µM (not active)
O=[N+]([O-])c1ccc2[nH]c3c(c2c1)CCCC3,AC50,[7],15.6 µM (active)
COc1ccc(/C=C2\N=C(c3ccccc3)N(c3ccc(C(=O)O)cc3)C2=O)cc1OC,IC50,[11],12.6 µM (active)
Cc1nc(SCC(=O)NC(=O)NC2CCCCC2)nc(C)c1C,IC50,[11],12.7 µM (active)
CC(C)C(=O)N1CCN(c2ccccc2N)CC1,IC50,[3],0.734 µM (not active)
O=C(COC(=O)c1ccccc1Nc1cccc(C(F)(F)F)c1)NCc1ccco1,IC50,[12],6.38 µM (active)
same,AC50,Cytochrome P450 2D6,10 µM (inconclusive)
CCCc1cc(C(=O)NN=C(S)NCc2ccccc2)cs1,IC50,[11],12.9 µM (active)
CC(=O)Oc1ccc(-c2cccc(C(=O)OCC(=O)N(C)c3ccccc3)c2)cc1,EC50,[13],> 260 µM (inactive)
same,IC50,[3],14.2 µM (not active)
CCOc1ccc(-c2nc(C#N)c(N3CCN(Cc4ccccc4)CC3)o2)cc1,IC50,Nonstructural protein 1,> 100 µM (active)
COCCn1c(-c2ccc(OC(F)(F)C(F)C(F)(F)F)cc2)nc2c1c(=O)[nH]c(=O)n2CC(C)C (configuration not stated),CC50,[14],> 40 µM (active)
COc1ccc(C(=O)N2CCN(c3ncnc4c(-c5ccccc5)nsc34)CC2)cc1,IC50,[3],4.3 µM (not active)
C/C(=N\NC(=N)N)c1ccccc1,IC50,[11],13.5 µM (active)
COc1ccc(N=Nc2cc(OC)c(N)cc2OC)cc1,IC50,[15],35.2 µM (active)
same,IC50,Nonstructural protein 1,35.3 µM (active)
CCOc1ccccc1C(O)C1=CC(=O)c2ccccc2C1=O (configuration not stated),IC50,[12],4.16 µM (active)
CC(=O)N(C)c1ccc(OCC(O)CN(c2ccccc2C)S(=O)(=O)c2ccc(C)cc2)cc1 (configuration not stated),IC50,[11],11.8 µM (active)
C[C@H]1CN([C@@H](C)CO)C(=O)c2cc(NC(=O)Nc3ccc4c(c3)OCO4)ccc2O[C@H]1CN(C)S(=O)(=O)c1ccc(F)cc1,AC50,[8],39 µM (active)
same,AC50,[9],15.2 µM (active)
Cc1ccnc2c1ccc1cccnc12,IC50,[16],> 80 µM (inactive)
same,IC50,Nonstructural protein 1,0.736 µM (active)
Cn1c(=O)c2c(nc(N/N=C/c3ccncc3)n2Cc2ccccc2)n(C)c1=O,AC50,[7],0.628 µM (active)
O=C(Cn1cncn1)N/N=C/c1cc([N+](=O)[O-])ccc1O,IC50,Nonstructural protein 1,3.9 µM (active)
Cc1cc(/C=N/NC(=O)C(=O)NCc2ccccn2)c(C)n1-c1cccc(Br)c1,IC50,[3],< 0.4 µM (not active)
CC(C)NC(=O)Nc1ccc2c(c1)C(=O)N(C)[C@H]1CC[C@H](CC(=O)Nc3ccccc3)O[C@H]1CO2,AC50,[17],1.23 µM (active)
same,AC50,[18],1.23 µM (active)
same,AC50,[19],1.26 µM (active)
same,AC50,[20],1.25 µM (active)
